Results published in US20100221709A1, “METHODS FOR IDENTIFYING AGENTS THAT MODULATE APOPTOSIS IN CELLS THAT OVER-EXPRESS A BCL-2 FAMILY MEMBER PROTEIN” (priority 2005, published 2010).
Where two headings read alike, the source gives them in different places.

Key:
[1] = system: TABX2S cells (over-expressing Bcl-xL); experiment: in vitro
Description: (§1) Briefly, a DNA fragment encoding the full-length mouse Bcl-xL cDNA was isolated from the plasmid pBS-BCL-xL (Tzung et al., Am. J. Path. 150:1985-1995 (1997), incorporated herein by reference in its entirety) by digestion with the restriction endonuclease EcoRI. This EcoRI fragment was cloned into the EcoRI site of the mammalian expression vector pSFFV (Fuhlbrigge et al., Proc. Nat. Acad. Sci. USA 85:5649-5653 (1988)) in both sense and antisense orientations, to form expression plasmids pSFFV-Bc/-xL-WT(sense) or pSFFV-Bc/-xL(antisense), respectively. The tumorigenic murine hepatocyte cell line TAMH was transfected by lipofection (Lipofectamine, Life Technologies, Rockville, Md., according to the manufacturer's recommendations) with the plasmids pSFFV-neo (the control), pSFFV-Bc/-xL-WT(sense) or pSFFV-Bc/-xL(antisense). Characterization of and culture conditions for the cell lines have been previously published (Wu et al., Proc. Nat. Acad. Sci. USA 91:674-78 (1994); Wu et al., Cancer Res. 54:5964-5973 (1994)). Transfectants were selected for the acquisition of neomycin resistance by growing cells in the presence of 750 μg/ml of G418. Bulk transfectants were cloned by limiting dilution and individual clones were screened by immunoblot analysis to determine the level of Bcl-xL, protein expression as described below.
(§2) Selected transfectants were then tested for whole cell sensitivity to several apoptotic agents. Transfected cells were cultured to reach approximately 80% confluency prior to plating an equal number of cells from selected clones on 12-well tissue culture plates. The transplanted cells were treated with the following apoptotic agents: 5 μM doxorubicin for 48 hours; 5 μM cisplatin for 48 hours; or with 200 U/ml tumor necrosis factor (TNF) plus 1 μg/ml actinomycin D for 18 hours. Cell viability was determined by trypan blue dye exclusion. The percentage of viable cells was calculated by the number of viable cells (treated with a particular apoptogenic agent) divided by the number in the control group (untreated).
(§3) TABX2S cells and TABX1A cells were also examined for the effects of various mitochondrial inhibitors. […] Azide was diluted from an aqueous stock solution.

[2] = target: T1, recombinant Bcl-2 (Bcl-2ΔC22) (Homo sapiens, UniProt P10415); experiment: Antimycin A3 fluorescence binding and competitive displacement assay; settings: antimycin A3 2 μM, competitor 2 μM, Bcl-2 3 μM
T1 construct: poly-His (N); made in house
Procedure: In this assay, 0 to 5 μM antimycin A3 (Sigma Chemical Co., St. Louis, Mo.) was added to a physiological buffer (50 mM Tris-HCl pH 8.0, 0.2 M NaCl, 2 mM EDTA, 0.5% v/v glycerol) containing recombinant Bcl-2 or Bcl-xL protein under conditions that permitted antimycin A3 to bind to the BH3-binding domain of Bcl-2 or Bcl-xL, (22.5° C. on a Hitachi F-2500 fluorescence spectrofluorimeter equipped with a thermostatted cell holder). […] The excitation wavelength was 335 nm, and the maximum emission wavelength for antimycin A3 was 428 nm with a slit width of 10 nm. The samples were mixed in a quartz cuvette and checked for inner filter effect over the range of antimycin A3 for this study. […]
Recombinant human Bcl-2ΔC22 (a recombinant human […] lacking the C-terminal 22-amino acid residue membrane anchor sequence) and mouse Bcl-xLΔC20 (a murine Bcl-xL lacking the C terminal 20-amino acid residue membrane anchor sequence) fused with poly-His at the N-terminus were chromatographically purified to homogeneity. The concentrations of antimycin A3 and stock solutions of recombinant proteins were quantitated using an extinction coefficient of 7.24/mM/cm at 320 nm and by Bradford assay, respectively. […] For peptide displacement experiments, a solution of 2 μM antimycin A3 and 3 μM Bcl-2 was allowed to reach binding equilibrium at 4° C. prior to fluorescence measurements. […]

Cellular O2 consumption = assay type: cell-based; settings: compared to antimycin A3
[3] = system: mitochondria from cells over-expressing Bcl-xL (TABX2S cells); experiment: JC-1 staining of isolated mitochondrial fractions; assay type: biochemical, murine; settings: 2 μg/ml
Procedure: Briefly, at 15 and 30 minutes, 5×10^5 cells were washed, trypsinized and resuspended in 1 ml of growth media. Each sample was stained with 10 μg/ml of JC-1 prepared in DMSO. After 10 minutes of incubation at 37° C., cells were transferred to ice and analysis was performed using a FACScan flow cytometer (Becton Dickinson). The excitation wavelength was 488 nm whereas measurement was performed at 520 and 585 nm for green and red fluorescence, respectively. Green and red fluorescence were measured on FL1 and FL2 channels, respectively. A minimum of 10,000 cells per sample were analyzed. Comparisons were made based on the results of at least three experiments.
Isolated mitochondria were loaded with JC-1 prior to treatment, and mitochondrial labeling was determined using FACS. […] Antimycin A-treated mitochondria with high levels of Bcl-xL had lower levels of JC-1 staining than parallel samples treated with CCCP. Uncoupled mitochondria still retain a significant Donnan potential because of trapped anionic species and it is likely that antimycin-induced PT and/or swelling of mitochondria led to a further reduction of this residual potential.
As observed for the parent compound, antimycin A3, mitochondria with normal levels of Bcl-xL expression were not affected by the 2-methoxy analog.

Bcl-xL(ΔC) WT = target: T2, Bcl-xL(ΔC) WT (Homo sapiens, UniProt Q07817); experiment: Pore assay, calcein release from large unilamellar vesicles; assay type: biochemical
T2 construct: inferred from pET22b(+) NdeI/XhoI cloning and nickel-NTA purification) (C); made in house; host or cells: Escherichia coli BL21(DE3) carrying pUB520
Procedure: Large unilamellar vesicles composed of 60% dioleoylphophatidylcholine and 40% dioleoylphosphatidylglycerol were prepared by the extrusion method of Mayer et al., supra. Lipid stocks, in chloroform, were mixed and dried under a stream of nitrogen gas. The lipid was resuspended by vortexing for 30 min in a solution of 40 mM calcein (Molecular Probes), 25 mM KCl, and 10 mM KOAc, pH 5.0. After 10 freeze-thaw cycles, the lipid suspension was extruded through two 0.1 μm pore diameter Nucleopore filters. Non-entrapped dye was removed by passage over a Sephadex G10 column (Amersham Biosciences). Lipid concentration was measured using the ammonium ferrothiocyanate method (Stewart, Anal. Biochem. 104:10-14, 1980).
For pore assays, recombinant truncated Bcl-2 family protein or mutant protein (Bcl-xL(ΔC)) (500 nM) was added to large unilamellar vesicles (60 μM lipid concentration) in 100 mM KCl, 10 mM KOAc, pH 5.0, and fluorescence measured (490 nm excitation, 520 nm emission) with a Fluoromax-3 spectrophotometer. Peptides of the BH3 domain were incubated with the Bcl-xL(ΔC) 5 min prior to mixing with liposomes. AA1 was added to liposomes 1 min before adding the Bcl-xL(ΔC) protein. Samples for kinetic assays were analyzed in a thermostatted cuvette at 37° C. with constant stirring. Dose responses were measured in black quartz microplates (Hellma) at room temperature. Calcein release was expressed as percentage of maximum release with detergent lysis (0.1% Triton X-100).

[4] = Cell viability by trypan blue dye exclusion; settings: mouse
Description: as §1
as §2, with “(untreated). […]” for “(untreated).”

in vitro = settings: mouse
Description: as §1, §2, §3

[5] = system: myeloma cell lines (RPMI-8226, U266, NCI-H929); assay type: cell-based, human
Procedure: Cell survival was assayed by exclusion of propidium iodide (PI) (10 mg/ml) by unfixed cells. Annexin V-FITC (Pharmingen) or 3,3′-dihexyloxacarbocyanine iodide (DiOC6(3)) (Molecular Probes) staining was analyzed together with PI to discriminate early apoptotic cells. Apoptotic cells were also measured as sub-G1 events among ethanol-fixed cells stained with […] PI. All cell samples were analyzed using a benchtop FACSCalibur® (Becton Dickinson, San Jose, Calif.) flow cytometer. Flow data were analyzed using MultiCycle AV software (Phoenix Flow Systems). For intracellular pH measurements, cell pellets were washed once and resuspended in 2 ml of HEPES-buffered medium (no phenol red and no serum). Carboxy-SNARF®-1 acetoxymethyl (AM) ester (Molecular Probes, 1 mM stock in DMSO, stored at −20° C.), a long wavelength fluorescent pH indicator, was added to a final concentration of 10 μM, and the cells were incubated for 30 min at 37° C. Following incubation with SNARF®-1 AM, cells were sedimented and the pellets were held on ice. Immediately before analysis, pellets were resuspended in Earle's balanced salt solution (experimental buffer) or high-[K^+] buffer containing nigericin (calibration samples).

T1 sequence (P10415 1-217 limits assumed, stated change not applied): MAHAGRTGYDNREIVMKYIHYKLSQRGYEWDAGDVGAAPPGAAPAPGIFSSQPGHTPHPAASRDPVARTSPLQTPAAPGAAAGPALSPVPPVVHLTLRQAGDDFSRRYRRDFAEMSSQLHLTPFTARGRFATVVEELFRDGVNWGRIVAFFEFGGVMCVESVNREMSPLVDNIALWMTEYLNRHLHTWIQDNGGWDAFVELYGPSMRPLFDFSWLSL
T2 sequence (Q07817 1-211 limits assumed, stated change not applied): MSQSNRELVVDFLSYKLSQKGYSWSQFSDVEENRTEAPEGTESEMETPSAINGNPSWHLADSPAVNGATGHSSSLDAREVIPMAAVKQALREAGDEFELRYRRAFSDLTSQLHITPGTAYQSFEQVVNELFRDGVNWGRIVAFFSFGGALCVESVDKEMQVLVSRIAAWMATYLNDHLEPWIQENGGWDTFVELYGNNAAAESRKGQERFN

## CCCC[C@H]1C(=O)OC(C)C(NC(=O)c2cccc(NC=O)c2OC)C(=O)O[C@@H](C)C1OC(=O)CC(C)C (some centres unmarked) [2-methoxy antimycin A3, antimycin A3 methyl ether]
[1]; TABX2S vs TAMH.neo and TABX1A
  cytotoxicity for cells that over-express Bcl-xL versus control cells: selective cytotoxicity
[2]
  displacement of antimycin A3 from Bcl-2 (antimycin A3 fluorescence): decreased exponentially
Cellular O2 consumption
  effect on cellular O2 consumption: negligible effect
[3]
  mitochondrial depolarization (JC-1): strongly depolarized

## CC(C)C(C(=O)O)N1C(=O)/C(=C\c2ccc(Br)cc2)SC1=S (centres unmarked) [BH3I-1]
Bcl-xL(ΔC) WT
  effect on Bcl-xL pore-forming activity (FIG. 3A): no effect

## COc1cccc2c1C(=O)c1c(O)c3c(c(O)c1C2=O)C[C@@](O)(C(=O)CO)C[C@@H]3O[C@H]1C[C@H](N)[C@H](O)[C@H](C)O1 [doxorubicin]
[4]
  viability at 48 h, 5 µM: 50%
[4]; TABX1A cells (TAMH hepatocyte line with Bcl-xL antisense)
  viability at 48 h, 5 µM: 20%
In vitro
  viability at 5 µM: 88%

## CC[C@H]1/C=C/C=C/C[C@@H](C)[C@H](O)[C@@](C)(O)C(=O)[C@@H](C)[C@H](O)[C@@H](C)C(=O)[C@@H](C)[C@H](O)[C@@H](C)/C=C/C(=O)O[C@@H]2[C@H](C)[C@H](CC1)O[C@]1(CC[C@H](C)[C@H](C[C@@H](C)O)O1)[C@H]2C [oligomycin]
[1]
  difference in sensitivity of TABX2S and TABX1A cell lines: no significant differences
[5]; 2-10 mg/ml
  cell killing: Only H929 cells were killed

## CCCCC1C(=O)OC(C)C(NC(=O)c2cccc(NC=O)c2OCC(=O)c2ccccc2)C(=O)OC(C)C1OC(=O)CC(C)C (centres unmarked) [phenacyl ether antimycin A3]
[2]
  displacement of antimycin A3 from Bcl-2 (antimycin A3 fluorescence): did not displace

## C=C(C)[C@H]1Cc2c(ccc3c2O[C@@H]2COc4cc(OC)c(OC)cc4[C@@H]2C3=O)O1 [rotenone]
[1]
  difference in sensitivity of TABX2S and TABX1A cell lines: no significant differences
[5]; 0.5-2.5 mg/ml
  cell killing: none of the myeloma cell lines were killed

## CC(C)[C@@H]1NC(=O)[C@H](C)OC(=O)[C@@H](C(C)C)NC(=O)[C@@H](C(C)C)OC(=O)[C@H](C(C)C)NC(=O)[C@H](C)OC(=O)[C@@H](C(C)C)NC(=O)[C@@H](C(C)C)OC(=O)[C@H](C(C)C)NC(=O)[C@H](C)OC(=O)[C@@H](C(C)C)NC(=O)[C@@H](C(C)C)OC1=O [valinomycin]
[1]
  difference in sensitivity of TABX2S and TABX1A cell lines: no significant differences
